{
  "source": "paper PMC8202330",
  "about": "“Phosphorylation of the LIR Domain of SCOC Modulates ATG8 Binding Affinity and Specificity” (Journal of Molecular Biology, 2021)",
  "note": "Residues, ends and D or L forms follow the SMILES beside them. *: point of attachment. Cbz = O=C(OCc1ccccc1)*",
  "data": [
    {"tested_on": "EGFP-SCOC (isoform 1 and 3) in HeLa Flp-In T-Rex cells", "test": "Western blot of EGFP-SCOC protein levels with lysosomal or proteasomal inhibitors", "format": "cell-based", "conditions": "7 h in full medium or EBSS, 10 µM MG132, 1 µM epoxymycin, 100 nM Bafilomycin A1", "protocol": "To determine whether SCOC is functioning as an autophagy receptor and degraded by autophagy, we induced expression of EGFP-SCOC (isoform 1 and 3) in HeLa cells followed by 7 h EBSS starvation in the presence and absence of lysosomal or proteasomal inhibitors. […] Thus, both SCOC isoform1 and 3 are not turned over by autophagy, but by the proteasome.\nHeLa Flp-In T-Rex cell lines expressing GFP-SCOC (isoform 1), GFP-SCOC (isoform 3), GFP-SCOC F14A/I17A (isoform 3) from a tetracycline inducible CMV promoter were made using the FlpIn T-Rex system (Thermofisher, R71407). pDest-EGFP-Flp-In SCOC iso1, pDest-EGFP-Flp-In SCOC iso3 and pDest-EGFP-Flp-In SCOC iso3 LIRm constructs were established by GATEWAY cloning into the pDEST-EGFP-FlpIn vector.[18] The HeLa-based Flp-In T-Rex host cell line (Invitrogen) contains a single integrated FRT site for insertion of selected constructs. To generate stable cell lines, Flp-In plasmids carrying the selected GFP-tagged constructs were co-transfected with pOG44 encoding the Flp-In recombinase in the ratio of 1:3. Cells were selected by treatment with 200 µg/ml Hygromycin B (Invitrogen, #10687010) and 7,5 µg/ml Blasticidine (Gibco, A1113903). Expression from the CMV-TetO2 promoter was induced by adding 0.5 μg/ml of tetracycline (Sigma, T7660) for 16 to 24 hours. HeLa Flp-In T-Rex cell lines were maintained in Dulbecco’s modified Eagle’s medium supplemented with 10% fetal calf serum, 4 mM l-glutamine, 1% streptomycin-penicillin, 100 µg/ml Hygromycin B, and 3.5 µg/ml Blasticitidine. Cells were treated as indicated with 100 nM Bafilomycin A1, 10 µM MG132, or 1 µM epoxomicin in full medium or Earle’s balanced salt solution (EBSS).\nCells were lysed in ice-cold TNTE buffer (20 mM Tris-HCl, pH 7.4, 150 mM NaCl, 0.5% w/v Triton X-100, 10% v/v glycerol, 5 mM EDTA) containing EDTA-free Complete Protease Inhibitor cocktail (Roche) and PhosSTOP (Roche). Lysates were cleared by centrifugation and resolved on NuPAGE Bis-Tris 4–12% gels (Life Technologies) followed by transfer onto a PVDF membrane (Millipore). […]", "values": [
      {"molecule": "CC(C)C[C@@H](C=O)NC(=O)[C@H](CC(C)C)NC(=O)[C@H](CC(C)C)NC(=O)OCc1ccccc1", "note": "[MG132] (Cbz-Leu-Leu-Leu-aldehyde)", "SCOC isoform 1 and 3 protein levels": "increased"},
      {"molecule": "CO/C1=C\\C(C)=C\\[C@@H](C)[C@@H](O)[C@@H](C)C/C(C)=C/C=C/[C@H](OC)[C@@H]([C@@H](C)[C@@H](O)[C@H](C)[C@@]2(O)C[C@@H](O)[C@H](C)[C@@H](C(C)C)O2)OC1=O", "note": "[BafilomycinA1]", "SCOC isoform 1 and 3 protein levels": "did not have any effect"},
      {"molecule": "CC[C@H](C)[C@H](NC(=O)[C@H]([C@@H](C)CC)N(C)C(C)=O)C(=O)N[C@H](C(=O)N[C@@H](CC(C)C)C(=O)[C@@]1(C)CO1)[C@@H](C)O", "note": "[epoxymycin]", "SCOC isoform 1 and 3 protein levels": "increased"}
    ]}
  ]
}
